System: rice
Assay: Low temperature assay on rice seedlings
Type: in vivo
Procedure: According to a low temperature assay, we measured parameters including plant height, number of leaf, area of leaf, number of tiller, weight of root at low temperature to completely determine effects of the natural brassinolide analogues on the resistance to low temperature of a plant.
The natural brassinolide analogues, BR1, BR2, BR3, BR4, BR5 and BR6, used herein, were those prepared by the method of Example 1. Respectively the analogues were dissolved into 95% (V/V) ethanol solution, and then diluted with pure water to 1 mg/L, 0.1 mg/L, 0.01 mg/L, 0.001 mg/L and 0.0001 mg/L. In addition, pure water was used as a control.
After rice seeds were disinfected by using 5% sodium hypochlorite solution treatment, they were rinsed with distilled water until their pH>7, placed into a petri dish in a dark incubator, and cultured by using water at 30° C.±2° C. for 9 days. Then respectively the nine-day-old etiolated seedlings of rice were immersed in the above solutions containing different concentrations of the natural brassinolide analogues or pure water, and cultured at the temperature of 1° C., 2° C., 3° C., 4° C. and 5° C. for 24 hr. The parameters including plant height, area of leaf and weight of root after 3, 6, 9 and 12 days and number of leaf and number of tiller after 12 days were measured.

In the case of `CC(C)C[C@@H](O)[C@H](O)[C@@H](C)[C@H]1CCC2C3CC(=O)C4C[C@H](O)[C@H](O)C[C@]4(C)C3CC[C@@]21C` (stereo partly drawn) [BR5], the Area of leaf (0.0001 mg/l, 1 °C, 3 days) is reported as 9.8 cm^2, the Height (0.0001 mg/l, 1 °C, 3 days) is reported as 6.8 cm and the Weight of root (0.0001 mg/l, 1 °C, 3 days) is reported as 2.8 g. The Area of leaf (0.0001 mg/l, 1 °C, 6 days) was 11.2 cm^2, the Height (0.0001 mg/l, 1 °C, 6 days) was 6.9 cm and the Weight of root (0.0001 mg/l, 1 °C, 6 days) was 3.1 g. It also gave an Area of leaf (0.0001 mg/l, 1 °C, 9 days) of 12 cm^2, a Height (0.0001 mg/l, 1 °C, 9 days) of 7 cm and a Weight of root (0.0001 mg/l, 1 °C, 9 days) of 3.4 g. The Area of leaf (0.0001 mg/l, 1 °C, 12 days) was 13.1 cm^2, the Height (0.0001 mg/l, 1 °C, 12 days) was 7.2 cm and the Number of leaf (0.0001 mg/l, 1 °C, 12 days) was 3. The Number of tiller (0.0001 mg/l, 1 °C, 12 days) was 3, the Weight of root (0.0001 mg/l, 1 °C, 12 days) was 3.6 g and the Area of leaf (0.0001 mg/l, 2 °C, 3 days) was 10 cm^2. The Height (0.0001 mg/l, 2 °C, 3 days) was 6.8 cm, the Weight of root (0.0001 mg/l, 2 °C, 3 days) was 2.8 g and the Area of leaf (0.0001 mg/l, 2 °C, 6 days) was 11.7 cm^2. It also gave a Height (0.0001 mg/l, 2 °C, 6 days) of 7 cm, a Weight of root (0.0001 mg/l, 2 °C, 6 days) of 3.0 g and an Area of leaf (0.0001 mg/l, 2 °C, 9 days) of 12.4 cm^2. For the same compound, the Height (0.0001 mg/l, 2 °C, 9 days) was 7.1 cm, the Weight of root (0.0001 mg/l, 2 °C, 9 days) was 3.2 g and the Area of leaf (0.0001 mg/l, 2 °C, 12 days) was 13 cm^2. For the same compound, the Height (0.0001 mg/l, 2 °C, 12 days) was 7.4 cm, the Number of leaf (0.0001 mg/l, 2 °C, 12 days) was 3 and the Number of tiller (0.0001 mg/l, 2 °C, 12 days) was 3. For the same compound, the Weight of root (0.0001 mg/l, 2 °C, 12 days) was 3.4 g, the Area of leaf (0.0001 mg/l, 3 °C, 3 days) was 10 cm^2 and the Height (0.0001 mg/l, 3 °C, 3 days) was 6.9 cm. It also gave a Weight of root (0.0001 mg/l, 3 °C, 3 days) of 2.5 g, an Area of leaf (0.0001 mg/l, 3 °C, 6 days) of 11.8 cm^2 and a Height (0.0001 mg/l, 3 °C, 6 days) of 7.2 cm. The Weight of root (0.0001 mg/l, 3 °C, 6 days) was 2.6 g, the Area of leaf (0.0001 mg/l, 3 °C, 9 days) was 12.3 cm^2 and the Height (0.0001 mg/l, 3 °C, 9 days) was 7.4 cm. It also gave a Weight of root (0.0001 mg/l, 3 °C, 9 days) of 2.9 g, an Area of leaf (0.0001 mg/l, 3 °C, 12 days) of 13.2 cm^2 and a Height (0.0001 mg/l, 3 °C, 12 days) of 7.5 cm. It also gave a Number of leaf (0.0001 mg/l, 3 °C, 12 days) of 3, a Number of tiller (0.0001 mg/l, 3 °C, 12 days) of 2 and a Weight of root (0.0001 mg/l, 3 °C, 12 days) of 2.9 g. It also gave an Area of leaf (0.0001 mg/l, 4 °C, 3 days) of 10 cm^2, a Height (0.0001 mg/l, 4 °C, 3 days) of 6.9 cm and a Weight of root (0.0001 mg/l, 4 °C, 3 days) of 2.5 g. It also gave an Area of leaf (0.0001 mg/l, 4 °C, 6 days) of 11.7 cm^2, a Height (0.0001 mg/l, 4 °C, 6 days) of 7.3 cm and a Weight of root (0.0001 mg/l, 4 °C, 6 days) of 2.6 g. It also gave an Area of leaf (0.0001 mg/l, 4 °C, 9 days) of 13 cm^2, a Height (0.0001 mg/l, 4 °C, 9 days) of 7.5 cm and a Weight of root (0.0001 mg/l, 4 °C, 9 days) of 2.7 g. It also gave an Area of leaf (0.0001 mg/l, 4 °C, 12 days) of 13.4 cm^2, a Height (0.0001 mg/l, 4 °C, 12 days) of 7.6 cm and a Number of leaf (0.0001 mg/l, 4 °C, 12 days) of 3. It also gave a Number of tiller (0.0001 mg/l, 4 °C, 12 days) of 2, a Weight of root (0.0001 mg/l, 4 °C, 12 days) of 2.9 g and an Area of leaf (0.0001 mg/l, 5 °C, 3 days) of 10.2 cm^2. It also gave a Height (0.0001 mg/l, 5 °C, 3 days) of 7.0 cm, a Weight of root (0.0001 mg/l, 5 °C, 3 days) of 2.5 g and an Area of leaf (0.0001 mg/l, 5 °C, 6 days) of 12 cm^2. The Height (0.0001 mg/l, 5 °C, 6 days) was 7.2 cm, the Weight of root (0.0001 mg/l, 5 °C, 6 days) was 2.7 g and the Area of leaf (0.0001 mg/l, 5 °C, 9 days) was 13.2 cm^2. The Height (0.0001 mg/l, 5 °C, 9 days) was 7.5 cm, the Weight of root (0.0001 mg/l, 5 °C, 9 days) was 2.9 g and the Area of leaf (0.0001 mg/l, 5 °C, 12 days) was 14 cm^2. It also gave a Height (0.0001 mg/l, 5 °C, 12 days) of 7.7 cm, a Number of leaf (0.0001 mg/l, 5 °C, 12 days) of 3 and a Number of tiller (0.0001 mg/l, 5 °C, 12 days) of 2. It also gave a Weight of root (0.0001 mg/l, 5 °C, 12 days) of 3.0 g, an Area of leaf (0.001 mg/l, 1 °C, 3 days) of 10.1 cm^2 and a Height (0.001 mg/l, 1 °C, 3 days) of 6.9 cm. It also gave a Weight of root (0.001 mg/l, 1 °C, 3 days) of 2.8 g, an Area of leaf (0.001 mg/l, 1 °C, 6 days) of 11.3 cm^2 and a Height (0.001 mg/l, 1 °C, 6 days) of 7.1 cm. For the same compound, the Weight of root (0.001 mg/l, 1 °C, 6 days) was 3.1 g, the Area of leaf (0.001 mg/l, 1 °C, 9 days) was 12.8 cm^2 and the Height (0.001 mg/l, 1 °C, 9 days) was 7.2 cm. For the same compound, the Weight of root (0.001 mg/l, 1 °C, 9 days) was 3.3 g, the Area of leaf (0.001 mg/l, 1 °C, 12 days) was 13 cm^2 and the Height (0.001 mg/l, 1 °C, 12 days) was 7.3 cm. For the same compound, the Number of leaf (0.001 mg/l, 1 °C, 12 days) was 3, the Number of tiller (0.001 mg/l, 1 °C, 12 days) was 3 and the Weight of root (0.001 mg/l, 1 °C, 12 days) was 3.9 g. For the same compound, the Area of leaf (0.001 mg/l, 2 °C, 3 days) was 9.8 cm^2, the Height (0.001 mg/l, 2 °C, 3 days) was 6.9 cm and the Weight of root (0.001 mg/l, 2 °C, 3 days) was 2.8 g.
